# “Also recorded” adds a separate entry of the source.
# Test system: CHO cells
# Experiment: Subcellular localization of Cy3-labeled tRNA in CHO cells treated with puromycin
# Format: cell-based, Chinese hamster
# Details: puromycin 1 mM, 0.5 h, 7 h post transfection; treated vs untreated CHO cells
# Description: Chinese hamster ovary cells (CHO-Ki) were maintained in nutrient mixture F-12 (Ham) supplemented with 10% (v/v) fetal calf serum, 5 mM L-glutamine and antibiotics (all from Biological Industries).
# Transfection—Cells were seeded in the day preceding the transfection (1.5×10^5 cells, 12 mm coverslips, in 24-well plates). Transfection was with 3 μg of yeast labeled-bulk tRNA (Interferin™, polyplus-transfection, according to manufacture's instructions). For DNA transfection (pSuper-retro-GFP), 9×10^4 cells/well were transfected with 1 μg DNA (TransIT-LT1 transfection reagent, according to manufacture's protocol). The following day, cells were re-transfected with labeled tRNA as described above.
# Quantitative image analysis—For quantitative analysis of spatial distribution of the labeled tRNA and additional cellular markers, the entire cell volume was imaged by spinning disk confocal microscopy (0.15 μm between planes of the z-stack) with a 100× lens and 1×1 “on chip binning” yielding a pixel size of 100×100 nm; and deconvolved with the constrained iterative algorithm of Slidebook™ which employs an experimentally measured point spread function (PSF). […]
smiles,measurement,value
COc1ccc(C[C@H](N)C(=O)N[C@H]2[C@@H](O)[C@H](n3cnc4c(N(C)C)ncnc43)O[C@@H]2CO)cc1 [puromycin],Nuclear localization of labeled tRNA (tRNA signal co-localizing with Hoechst signal),marked accumulation of tRNA in the nucleus; also recorded: increase in nuclear localization of labeled tRNA

# Source: patent US9377453B2, “Systems and methods for detection of cellular stress” (RAMOT AT TEL AVIV UNIVERSITY LTD., priority 2010, dated 2016)
